Assay results reported in PMC7048748, “Anxiolytic Drug FGIN-1-27 Ameliorates Autoimmunity by Metabolic Reprogramming of Pathogenic Th17 Cells” (Scientific Reports, 2020).

Test system: Th17 cells
Assay: Lipidomics of Th17 cells
Assay type: cell-based, mouse
Set-up: key to nCE(16:0) / nCE(18:2) / nDCER(22:0) / nDCER[FA14:0] / nFFA(12:0) / nFFA(14:1) / nFFA(18:4) / nCE(22:0) / nCE(22:6) / nCE(24:1) / nCE[FA14:1] / nCE(12:0) / nCE[FA16:0] / nCE[FA17:0] / nCE[FA18:2] / nCE[FA22:6]: mole percent of each fatty acid within its lipid class; key to nDCER[FA18:1]: mole percent of fatty acid within lipid class
Experimental: Specific cholesterol precursors like desmosterol and oxysterols, such as 7β, 27-dihydroxycholesterol (7β, 27-OHC), have been identified as ligands for RORγt[21],[22] and shown to modulate Th17 differentiation. […] Next, we extended our studies to lipid metabolites and profiled the lipidome of Th17 cells treated with DMSO or FGIN-1-27.
(a) Quantitation of cholesterol esters, triacylglycerols (TAGs), phosphatidylethanolamine (PE) and phosphatidylcholine (PC) in Th17 cells 72 hours after treatment with FGIN-1-27. The error bars represent SD. (b) Heat map showing fatty acid composition (mole percent) for different lipid classes after treatment with FGIN-1-27. (c) Pie charts showing proportions of different fatty acid classes namely PUFAs, MUFAs, ODD and SFAs within the cholesterol esters. (d) Transcript analysis for CD5L 72 hours post treatment with FGIN-1-27. The error bars represent SD.
Th17 cells were differentiated from naïve purified CD4 T cells and treated with either FGIN-1-27 (10 µM) or DMSO during polarization. 10 million cells/treatment were harvested and snap frozen. […] The extracts were concentrated under nitrogen and reconstituted in 0.25 mL of dichloromethane:methanol (50:50) containing 10 mM ammonium acetate. The extracts were placed in vials for infusion-MS analyses, performed on a SelexION equipped Sciex 5500 QTRAP using both positive and negative mode electrospray. Each sample was subjected to 2 analyses, with IMS-MS conditions optimized for lipid classes monitored in each analysis. The 5500 QTRAP was operated in MRM mode to monitor the transitions for over 1,100 lipids from up to 14 lipid classes. Individual lipid species were quantified based on the ratio of signal intensity for target compounds to the signal intensity for an assigned internal standard of known concentration. Lipid class concentrations were calculated from the sum of all molecular species within a class, and fatty acid compositions were determined by calculating the proportion of individual fatty acids within each class.

CCCCCCN(CCCCCC)C(=O)Cc1c(-c2ccc(F)cc2)[nH]c2ccccc12 [FGIN-1-27, N, N-di-n-hexyl 2-(4-fluorophenyl) indole-3-acetamide]
nDAG(15:0/18:2) (Th17 cells, 10 µM): 0.0745 | nDAG(16:0/16:0) (Th17 cells, 10 µM): 19.5066 | nDAG(16:0/16:1) (Th17 cells, 10 µM): 3.679 | nDAG(16:0/18:0) (Th17 cells, 10 µM): 17.7482 | nDAG(16:0/18:1) (Th17 cells, 10 µM): 17.8834 | nDAG(16:0/18:2) (Th17 cells, 10 µM): 1.3367 | nDAG(16:0/18:3) (Th17 cells, 10 µM): 0.06918 | nDAG(16:0/20:3) (Th17 cells, 10 µM): 2.168 | nDAG(16:0/20:4) (Th17 cells, 10 µM): 0.4462 | nDAG(16:0/20:5) (Th17 cells, 10 µM): 0.02527 | nDAG(16:0/22:5) (Th17 cells, 10 µM): 0.2343 | nDAG(16:0/22:6) (Th17 cells, 10 µM): 0.3639 | nDAG(16:1/16:1) (Th17 cells, 10 µM): 0.2383 | nDAG(16:1/18:0) (Th17 cells, 10 µM): 0.9172 | nDAG(16:1/18:1) (Th17 cells, 10 µM): 1.986 | nDAG(16:1/18:2) (Th17 cells, 10 µM): 0.2498 | nDAG(16:1/18:3) (Th17 cells, 10 µM): 0.05893 | nDAG(16:1/20:0) (Th17 cells, 10 µM): 0.281 | nDAG(16:1/20:2) (Th17 cells, 10 µM): 0.05259 | nDAG(16:1/20:4) (Th17 cells, 10 µM): 0.0501 | nDAG(16:1/22:6) (Th17 cells, 10 µM): 0.1384 | nDAG(18:0/18:1) (Th17 cells, 10 µM): 4.793 | nDAG(18:0/18:2) (Th17 cells, 10 µM): 1.2841 | nDAG(18:0/18:3) (Th17 cells, 10 µM): 0.04099 | nDAG(18:0/22:6) (Th17 cells, 10 µM): 0.5166 | nDAG(18:1/18:1) (Th17 cells, 10 µM): 5.728 | nDAG(18:1/18:2) (Th17 cells, 10 µM): 1.367 | nDAG(18:1/20:1) (Th17 cells, 10 µM): 0.6608 | nDAG(18:1/20:2) (Th17 cells, 10 µM): 0.298 | nDAG(18:1/20:3) (Th17 cells, 10 µM): 0.3254 | nDAG(18:1/20:4) (Th17 cells, 10 µM): 0.3507 | nDAG(18:1/20:5) (Th17 cells, 10 µM): 0.04364 | nDAG(18:1/22:4) (Th17 cells, 10 µM): 0.1472 | nDAG(18:1/22:5) (Th17 cells, 10 µM): 0.2687 | nDAG(18:1/22:6) (Th17 cells, 10 µM): 0.3639 | nDAG(18:2/18:3) (Th17 cells, 10 µM): 0.01794 | nDAG(18:2/20:3) (Th17 cells, 10 µM): 0.05124 | nDAG(18:2/20:4) (Th17 cells, 10 µM): 0.02818 | nDAG(18:2/20:5) (Th17 cells, 10 µM): 0.009187 | nDAG(18:2/22:4) (Th17 cells, 10 µM): 0.01566 | nDAG(18:2/22:5) (Th17 cells, 10 µM): 0.004594 | nDAG(18:2/22:6) (Th17 cells, 10 µM): 0.04424 | nDAG(20:0/20:0) (Th17 cells, 10 µM): 0.1788 | nDAG[FA12:0] (Th17 cells, 10 µM): 0.4433 | nDAG[FA14:0] (Th17 cells, 10 µM): 7.546 | nDAG[FA14:1] (Th17 cells, 10 µM): 0.2449 | nDAG[FA15:0] (Th17 cells, 10 µM): 0.1819 | nDAG[FA16:0] (Th17 cells, 10 µM): 46.2571 | nDAG[FA16:1] (Th17 cells, 10 µM): 4.564 | nDAG[FA18:0] (Th17 cells, 10 µM): 12.8033 | nDAG[FA18:1] (Th17 cells, 10 µM): 21.7078 | nDAG[FA18:2] (Th17 cells, 10 µM): 2.36 | nDAG[FA18:3] (Th17 cells, 10 µM): 0.09864 | nDAG[FA20:0] (Th17 cells, 10 µM): 0.4502 | nDAG[FA20:1] (Th17 cells, 10 µM): 0.3304 | nDAG[FA20:2] (Th17 cells, 10 µM): 0.1753 | nDAG[FA20:3] (Th17 cells, 10 µM): 1.272 | nDAG[FA20:4] (Th17 cells, 10 µM): 0.4517 | nDAG[FA20:5] (Th17 cells, 10 µM): 0.03905 | nDAG[FA22:4] (Th17 cells, 10 µM): 0.08141 | nDAG[FA22:5] (Th17 cells, 10 µM): 0.2538 | nDAG[FA22:6] (Th17 cells, 10 µM): 0.7392 | nDCER (Th17 cells, 10 µM): 0.1046 | nDCER(14:0) (Th17 cells, 10 µM): 1.585 | nDCER(16:0) (Th17 cells, 10 µM): 30.1076 | nDCER(18:0) (Th17 cells, 10 µM): 3.38 | nDCER(18:1) (Th17 cells, 10 µM): 0.4226 | nDCER(20:0) (Th17 cells, 10 µM): 4.543 | nDCER(20:1) (Th17 cells, 10 µM): 0.06424 | nDCER(22:0) (Th17 cells, 10 µM): 7.184 | nDCER(22:1) (Th17 cells, 10 µM): 1.69 | nDCER(24:0) (Th17 cells, 10 µM): 25.6706 | nDCER(24:1) (Th17 cells, 10 µM): 24.1916 | nDCER(26:0) (Th17 cells, 10 µM): 0.1056 | nDCER(26:1) (Th17 cells, 10 µM): 1.0564 | nDCER[FA14:0] (Th17 cells, 10 µM): 1.585 | nDCER[FA16:0] (Th17 cells, 10 µM): 30.1076 | nDCER[FA18:0] (Th17 cells, 10 µM): 3.38 | nDCER[FA18:1] (Th17 cells, 10 µM): 0.4226 | nDCER[FA20:0] (Th17 cells, 10 µM): 4.543 | nDCER[FA20:1] (Th17 cells, 10 µM): 0.06424 | nDCER[FA22:0] (Th17 cells, 10 µM): 7.184 | nDCER[FA22:1] (Th17 cells, 10 µM): 1.69 | nDCER[FA24:0] (Th17 cells, 10 µM): 25.6706 | nDCER[FA24:1] (Th17 cells, 10 µM): 24.1916 | nDCER[FA26:0] (Th17 cells, 10 µM): 0.1056 | nDCER[FA26:1] (Th17 cells, 10 µM): 1.0564 | nFFA (Th17 cells, 10 µM): 4.287 | nFFA(12:0) (Th17 cells, 10 µM): 1.325 | nFFA(14:0) (Th17 cells, 10 µM): 3.367 | nFFA(14:1) (Th17 cells, 10 µM): 0.5145 | nFFA(15:0) (Th17 cells, 10 µM): 1.588 | nFFA(16:0) (Th17 cells, 10 µM): 33.0903 | nFFA(16:1) (Th17 cells, 10 µM): 1.393 | nFFA(17:0) (Th17 cells, 10 µM): 2.524 | nFFA(18:0) (Th17 cells, 10 µM): 24.6299 | nFFA(18:1) (Th17 cells, 10 µM): 8.8316 | nFFA(18:2) (Th17 cells, 10 µM): 4.005 | nFFA(18:3) (Th17 cells, 10 µM): 1.526 | nFFA(18:4) (Th17 cells, 10 µM): 0.3971 | phosphatidylethanolamine (PE) and phosphatidylcholine (PC) (not statistically significant): modestly increased | lipid metabolites with differential levels (of 1300 lipid metabolites, p < 0.05): 39.6%
